Data on three compounds can be found in US20240366569A1, “COMBINATIONS FOR TREATING CANCER” (Purdue Pharmaceutical Products L.P., priority 2023, published 2024).

The nature of series [1]: Phase 1B clinical trial of Tinostamustine in combination with Nivolumab: safety, tolerability, recommended dose. Format: in vivo, human. The source says:
The clinical study relates to an open-label, single-centre, phase-1B clinical trial to determine the safety, tolerability, recommended dose and anti-cancer efficacy of Tinostamustine in combination with the anti-PD-1 monoclonal antibody (mAb), Nivolumab in patients with advanced melanoma receiving standard-of-care treatment. Tinostamustine is a compound having the following structural formula: […]
A total of 17 patients with advanced melanoma were recruited to a Phase IB study to characterise the safety, tolerability, recommended dose and preliminary efficacy in the treatment of cancer of Tinostamustine in combination with the immune checkpoint inhibitor, Nivolumab.
Tinostamustine was administered intravenously. Four patients were administered tinostamustine at a dose of 15 mg/m^2 (referred to as dose level 1—DL1) for each cycle. Thirteen patients were administered with Tinostamustine at a dose of 30 mg/m^2 (referred to as dose level 2—DL2) for each cycle.
The primary endpoint of the study was dose limiting toxicity (DLT) observed during the first 6 weeks of trial treatment. […]

Series [2] deals with MC38 subcutaneous murine colorectal syngeneic model. The experiment in a line: MC38 subcutaneous murine colorectal syngeneic model: tumour burden and survival. The format is in vivo, female C57BL/6 mice. The procedure:
Specifically, the effects of the combined therapy Tinostamustine and an […] antibody in the treatment of the MC38 subcutaneous murine colorectal syngeneic model in female C57BL/6 mice following 3 dose cycles was assessed. MC38 is a commonly used murine model for colorectal carcinoma.
Six groups of mice were randomly allocated a group, hereafter referred to as Groups 1 to 6, as in Table 3.
Tinostamustine was administered intravenously, specifically by slow intravenous injection at a rate of ˜60 s per mouse. Two groups of mice were administered tinostamustine at a dose of 5 mg/kg once weekly, either as a monotherapy (Group 3) or as a combination therapy (Group 5). […]
The MC38 cells were maintained in vitro with DMEM medium supplemented with 10% fetal bovine serum at 37° C. in an atmosphere of 5% CO2 in air. The cells in exponential growth phase were harvested and quantitated by cell counter before tumour inoculation. […]
Tumour volumes were measured twice a week after randomization in two dimensions using a caliper, and the volume was expressed in mm3 using the formula: “V=(L×W×W)/2, where V was tumour volume, L was tumour length (the longest tumor dimension) and W was tumour width (the longest tumour dimension perpendicular to L). […] The body weights and tumour volumes were measured by using StudyDirector™ software (version 3.1.399.19). […]

The nature of series [3]: MC38 model: tolerability and body weight. Format: in vivo, female C57BL/6 mice. The procedure:
After tumour cell inoculation, the animals were checked daily for morbidity and mortality. During routine monitoring, the animals were checked for treatment effects on tumour growth, behaviour such as mobility, food and water consumption, body weight gain/loss (Body weights) were measured twice a week after randomization), eye/hair matting and any other abnormalities. Mortality and observed clinical signs were recorded for individual animals in detail.
Tumour volumes were measured twice a week after randomization in two dimensions using a caliper, and the volume was expressed in mm3 using the formula: “V=(L×W×W)/2, where V was tumour volume, L was tumour length (the longest tumor dimension) and W was tumour width (the longest tumour dimension perpendicular to L). Dosing as well as tumour and body weight measurements were conducted in a Laminar Flow Cabinet. The body weights and tumour volumes were measured by using StudyDirector™ software (version 3.1.399.19).

The nature of series [4]: Myelosuppression on administration of Tinostamustine at the indicated dosage ranges. The format is in vivo. The following applies: below 40 mg/m^2 body surface area. The procedure:
More particularly, the dosage ranges of Tinostamustine described herein may preferably avoid Tinostamustine causing cytotoxicity to immune cells. For comparison, the doses at which Tinostamustine are administered in accordance with the present invention are below those normally used to achieve an anti-cancer neoplastic effect (e.g. via inducing cytotoxicity in tumour cells) with Tinostamustine as a monotherapy (typically […]).

A further series concerns metastatic melanoma. The following applies: cited from earlier work.
In series [5] the test system is renal cell carcinoma (RCC). The following applies: cited from earlier work.
For series [6] the following is noted: patients with advanced melanoma; cited from earlier work.
For series [7], the system named is advanced melanoma. The following applies: cited from earlier work.
Series [8] concerns advanced melanoma. To be noted: in vivo; cited from earlier work.

Entries after “also recorded” stand apart in the source; their conditions may differ.

Consider `Cn1c(CCCCCCC(=O)NO)nc2cc(N(CCCl)CCCl)ccc21` [Tinostamustine], for which, in [1] (Tinostamustine doses between 10 mg/m^2 and 30 mg/m^2 body surface area), the safety concerns result is “without any significant safety concerns”. The recommended dose in [1] (in combination with Nivolumab 3 mg/kg) worked out at 30 mg/m^2. In addition, in [2] (dose group not specified), the “tumour burden / anti-tumour effect” value is given as “has anti-tumour effect”. In series [2] (vs vehicle control), the survival of mice entry was “significantly prolonged the survival; also recorded: increases survival”. Also, in series [3] (3 weeks of treatment), the tolerability entry is recorded as “well-tolerated”. For the same compound, the body weight result in series [3] (mean body weight during treatment) was “no loss of body weight; also recorded: weight gain”. Also, in series [4], the myelosuppression entry is “no myelosuppression”.

Consider “Ipilimumab: anti-CTLA-4 monoclonal antibody”, for which the response rate in the series on metastatic melanoma is 15-20%; in series [5] it was “minimal activity”. Further, in [6], the high-grade adverse events is given as 28 % of patients.

With Nivolumab, in the series with advanced melanoma [7] (first-line), the objective response rate is given as 40.0% and the progression-free survival is on record as 5.1 months. Also, in the series on advanced melanoma [7] (versus dacarbazine, first-line), the “overall survival improved by” value was 58%. Also, in the series on advanced melanoma [7] (versus dacarbazine, p<0.001), the “overall survival HR” value is listed as 0.42 and the “progression-free survival HR” value is recorded as 0.43. For the same compound, in the series on advanced melanoma [7] (versus dacarbazine), the “progression-free survival improved by” value is 57%. Besides, the median overall survival result in the series with advanced melanoma [8] was “not reached”. Further, the response rate in the series on metastatic melanoma is listed as 43%. In addition, in [5], the response rate is reported as roughly 25%. Further, the high-grade adverse events in series [6] is 23 % of patients.
